Here are results for 29 compounds from US9302991B2, “Arylamide derivatives as TTX-S blockers” (RaQualia Pharma Inc., priority 2010, dated 2016).

In general, IC50 refers to the midpoint of a concentration-inhibition curve.

One assay deals with T1, human Nav1.3 channels (Homo sapiens, UniProt Q9NY46).
T1 construct: expressed in transfected cells; host or cells: HEK293
The experiment in a line: FRET assay, human Nav1.3 (EFS on FDSS). The conditions noted are these: HEK293 cells expressing human Nav1.3, read-out: IC50 against Nav1.3. The class given is cell-based. In short, it runs like this: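 HEK293 cells expressing the channel, loaded with 10 microM CC2-DMPE then 15 microM DiSBAC2(3) plus 0.555 mM VABSC-1 in pH 7.4 HEPES buffer at room temperature. Membrane potential changes evoked by electrical field stimulation after compound addition; IC50 from 440 nm-normalized FRET ratios.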

Another assay deals with T2, human Nav1.7 channels (Homo sapiens, UniProt Q15858).
T2 construct: expressed in transfected cells; host or cells: CHO
T2 sequence (Q15858 whole entry): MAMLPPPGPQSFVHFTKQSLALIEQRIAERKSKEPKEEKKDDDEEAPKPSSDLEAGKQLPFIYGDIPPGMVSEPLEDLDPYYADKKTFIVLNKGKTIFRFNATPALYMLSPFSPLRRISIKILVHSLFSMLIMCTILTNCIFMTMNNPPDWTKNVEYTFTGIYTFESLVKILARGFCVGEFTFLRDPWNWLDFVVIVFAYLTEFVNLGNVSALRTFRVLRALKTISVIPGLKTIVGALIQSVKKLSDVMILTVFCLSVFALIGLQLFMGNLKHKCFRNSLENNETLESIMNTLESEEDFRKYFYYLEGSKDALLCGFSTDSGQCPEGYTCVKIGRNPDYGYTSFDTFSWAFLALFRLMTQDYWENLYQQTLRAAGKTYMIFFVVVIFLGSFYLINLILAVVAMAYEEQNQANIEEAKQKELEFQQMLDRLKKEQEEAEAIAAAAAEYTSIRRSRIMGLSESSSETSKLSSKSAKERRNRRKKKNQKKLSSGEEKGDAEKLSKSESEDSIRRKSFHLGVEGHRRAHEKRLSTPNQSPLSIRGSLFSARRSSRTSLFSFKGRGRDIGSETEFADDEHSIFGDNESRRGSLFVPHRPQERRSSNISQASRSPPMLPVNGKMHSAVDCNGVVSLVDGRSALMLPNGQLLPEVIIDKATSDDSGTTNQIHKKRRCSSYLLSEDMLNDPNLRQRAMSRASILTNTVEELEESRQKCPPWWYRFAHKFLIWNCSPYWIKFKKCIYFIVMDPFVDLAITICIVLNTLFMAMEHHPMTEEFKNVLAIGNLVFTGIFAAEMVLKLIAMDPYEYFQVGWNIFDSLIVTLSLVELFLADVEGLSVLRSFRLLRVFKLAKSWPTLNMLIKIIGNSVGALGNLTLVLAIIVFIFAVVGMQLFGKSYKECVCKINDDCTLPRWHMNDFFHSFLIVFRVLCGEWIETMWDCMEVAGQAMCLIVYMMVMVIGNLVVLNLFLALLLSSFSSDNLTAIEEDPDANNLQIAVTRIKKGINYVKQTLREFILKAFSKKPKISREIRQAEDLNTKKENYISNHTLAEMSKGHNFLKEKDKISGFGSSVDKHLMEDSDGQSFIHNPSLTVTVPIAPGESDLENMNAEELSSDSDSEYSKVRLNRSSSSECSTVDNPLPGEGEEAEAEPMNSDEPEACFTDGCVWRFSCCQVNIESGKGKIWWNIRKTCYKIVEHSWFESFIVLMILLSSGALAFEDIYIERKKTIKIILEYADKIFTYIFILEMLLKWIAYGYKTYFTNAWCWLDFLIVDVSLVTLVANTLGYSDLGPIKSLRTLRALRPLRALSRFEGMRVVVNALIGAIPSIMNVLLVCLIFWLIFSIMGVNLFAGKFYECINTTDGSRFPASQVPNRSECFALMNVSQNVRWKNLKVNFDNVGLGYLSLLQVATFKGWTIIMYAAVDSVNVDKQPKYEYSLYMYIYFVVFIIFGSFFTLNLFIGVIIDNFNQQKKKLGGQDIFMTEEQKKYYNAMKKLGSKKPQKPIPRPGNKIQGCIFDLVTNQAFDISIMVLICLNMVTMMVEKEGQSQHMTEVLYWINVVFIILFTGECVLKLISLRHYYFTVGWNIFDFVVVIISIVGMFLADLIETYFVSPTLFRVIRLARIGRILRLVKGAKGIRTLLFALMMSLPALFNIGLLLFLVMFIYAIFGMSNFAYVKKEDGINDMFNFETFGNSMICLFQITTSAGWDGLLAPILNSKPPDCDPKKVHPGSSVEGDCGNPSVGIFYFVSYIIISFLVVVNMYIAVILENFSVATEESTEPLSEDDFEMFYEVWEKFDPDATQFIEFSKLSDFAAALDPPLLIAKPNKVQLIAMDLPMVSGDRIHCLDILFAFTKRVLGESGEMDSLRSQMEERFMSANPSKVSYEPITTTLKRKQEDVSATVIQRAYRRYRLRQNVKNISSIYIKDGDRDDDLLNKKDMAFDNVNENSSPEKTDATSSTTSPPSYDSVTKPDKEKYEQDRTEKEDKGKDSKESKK
The experiment in a line: FRET assay, human Nav1.7 (EFS on FDSS). The class given is cell-based. The conditions noted are these: CHO cells expressing human Nav1.7, read-out: IC50 against Nav1.7. A digest of the protocol:
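IC50 was derived from normalized 440 nm fluorescence ratios of the EFS-evoked membrane-potential response read on FDSS. Recombinant CHO cells were sequentially dye-loaded with coumarin/oxonol FRET pair at room temperature in pH 7.4 buffer before compound addition.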

T1 sequence (Q9NY46 whole entry): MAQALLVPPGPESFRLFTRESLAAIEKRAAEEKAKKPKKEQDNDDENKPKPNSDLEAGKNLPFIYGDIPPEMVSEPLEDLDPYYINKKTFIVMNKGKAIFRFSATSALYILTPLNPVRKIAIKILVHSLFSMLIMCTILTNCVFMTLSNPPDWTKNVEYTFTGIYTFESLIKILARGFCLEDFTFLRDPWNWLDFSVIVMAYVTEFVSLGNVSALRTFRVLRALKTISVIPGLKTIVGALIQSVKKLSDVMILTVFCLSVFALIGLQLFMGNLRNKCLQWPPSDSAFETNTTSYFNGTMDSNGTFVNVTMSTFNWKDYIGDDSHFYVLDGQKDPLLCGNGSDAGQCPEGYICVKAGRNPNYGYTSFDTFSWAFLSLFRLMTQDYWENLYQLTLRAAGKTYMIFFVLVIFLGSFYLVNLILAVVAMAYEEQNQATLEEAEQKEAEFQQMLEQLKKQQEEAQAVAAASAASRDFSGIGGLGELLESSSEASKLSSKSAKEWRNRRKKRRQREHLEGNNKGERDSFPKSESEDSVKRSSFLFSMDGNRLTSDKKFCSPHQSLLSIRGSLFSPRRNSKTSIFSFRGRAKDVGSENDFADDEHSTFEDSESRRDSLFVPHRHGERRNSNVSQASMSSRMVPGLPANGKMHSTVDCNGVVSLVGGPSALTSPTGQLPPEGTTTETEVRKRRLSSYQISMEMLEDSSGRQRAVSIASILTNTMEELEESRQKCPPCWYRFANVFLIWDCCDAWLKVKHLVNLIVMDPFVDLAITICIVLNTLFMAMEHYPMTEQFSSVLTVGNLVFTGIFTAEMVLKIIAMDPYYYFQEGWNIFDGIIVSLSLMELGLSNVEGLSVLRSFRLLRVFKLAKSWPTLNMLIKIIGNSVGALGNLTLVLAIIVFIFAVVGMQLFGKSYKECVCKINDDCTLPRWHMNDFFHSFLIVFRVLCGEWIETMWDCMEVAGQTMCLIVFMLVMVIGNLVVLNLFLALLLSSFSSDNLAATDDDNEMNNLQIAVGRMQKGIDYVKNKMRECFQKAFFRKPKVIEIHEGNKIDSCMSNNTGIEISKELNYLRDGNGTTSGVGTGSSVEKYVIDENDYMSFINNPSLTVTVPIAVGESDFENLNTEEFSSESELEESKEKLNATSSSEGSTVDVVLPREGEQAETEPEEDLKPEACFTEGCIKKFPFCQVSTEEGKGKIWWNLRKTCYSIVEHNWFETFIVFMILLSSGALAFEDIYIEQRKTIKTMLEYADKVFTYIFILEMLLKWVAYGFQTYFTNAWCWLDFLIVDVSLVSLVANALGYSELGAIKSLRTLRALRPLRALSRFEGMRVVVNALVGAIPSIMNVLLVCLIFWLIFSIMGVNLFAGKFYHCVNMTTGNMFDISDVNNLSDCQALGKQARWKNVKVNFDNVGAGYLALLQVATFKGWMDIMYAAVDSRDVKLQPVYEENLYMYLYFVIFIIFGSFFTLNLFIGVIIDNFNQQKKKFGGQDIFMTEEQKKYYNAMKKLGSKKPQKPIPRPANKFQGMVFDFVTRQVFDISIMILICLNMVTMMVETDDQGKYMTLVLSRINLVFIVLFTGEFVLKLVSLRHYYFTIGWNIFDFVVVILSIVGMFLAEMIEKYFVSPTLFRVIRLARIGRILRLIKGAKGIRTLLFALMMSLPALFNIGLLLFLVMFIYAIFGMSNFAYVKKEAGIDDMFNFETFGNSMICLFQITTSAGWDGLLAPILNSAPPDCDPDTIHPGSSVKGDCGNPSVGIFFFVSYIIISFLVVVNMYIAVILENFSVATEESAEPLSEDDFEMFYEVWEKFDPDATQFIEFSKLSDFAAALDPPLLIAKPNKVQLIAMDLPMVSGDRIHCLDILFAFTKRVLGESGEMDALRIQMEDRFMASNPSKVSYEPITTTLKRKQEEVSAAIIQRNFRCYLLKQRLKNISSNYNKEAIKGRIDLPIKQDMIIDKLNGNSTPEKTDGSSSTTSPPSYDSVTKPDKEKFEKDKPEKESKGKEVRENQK

With `CC(=O)Nc1cc(C(=O)NC(C)c2cnc(OCC(F)(F)C(F)F)c(C)c2)cc(C)n1` (single isomer, unassigned) [Example 927, 2-acetamido-6-methyl-N-(1-(5-methyl-6-(2,2,3,3-tetrafluoropropoxy)pyridin-3-yl)ethyl)isonicotinamide], the 50% inhibitory concentration (IC50) at human Nav1.3 channels and at human Nav1.7 channels was less than 1000 nM in each case.

With `Cc1cc(C(C)NC(=O)c2ccnc(NC(=O)C(C)C)c2)cnc1OCC(F)(F)C(F)F` (single isomer, unassigned) [Example 904, 2-isobutyramido-N-(1-(5-methyl-6-(2,2,3,3-tetrafluoropropoxy)pyridin-3-yl)ethyl)isonicotinamide], the IC50 on human Nav1.3 channels and at human Nav1.7 channels was less than 1000 nM each time.

In the case of `CCC(=O)Nc1cc(C(=O)NCc2cnc(OCC(F)(F)F)c(Cl)c2)ccn1` [Example 94, N-((5-chloro-6-(2,2,2-trifluoroethoxy)pyridin-3-yl)methyl)-2-propionamidoisonicotinamide], the IC50 at human Nav1.3 channels and at human Nav1.7 channels was less than 1000 nM throughout.

`Cc1cc(C(=O)NCc2cc(C(F)(F)F)ccc2F)cc(NC(=O)C2CC2)n1` [Example 975, 2-(cyclopropanecarboxamido)-N-(2-fluoro-5-(trifluoromethyl)benzyl)-6-methylisonicotinamide]: the IC50 on human Nav1.3 channels and on human Nav1.7 channels was less than 1000 nM each time.

For the compound `Cc1cc(C(=O)NCc2cnc(OCC(F)(F)C(F)F)c(C)c2)cc(NC(=O)C2CC2)n1` [Example 946, 2-(cyclopropanecarboxamido)-6-methyl-N-((5-methyl-6-(2,2,3,3-tetrafluoropropoxy)pyridin-3-yl)methyl)isonicotinamide], the IC50 at human Nav1.3 channels and on human Nav1.7 channels was less than 1000 nM in each case.

As for `CCC(=O)Nc1nccc(C(=O)NC(C)c2cnc(OCC(F)(F)F)c(C)c2)n1` (single isomer, unassigned) [Example 223, N-(1-(5-methyl-6-(2,2,2-trifluoroethoxy)pyridin-3-yl)ethyl)-2-propionamidopyrimidine-4-carboxamide], the IC50 on human Nav1.3 channels and on human Nav1.7 channels was less than 1000 nM throughout.

In the case of `COc1cc(CNC(=O)c2cc(C)nc(NC(=O)C(C)C)n2)cnc1OCC(F)(F)F` [Example 443, 2-isobutyramido-N-((5-methoxy-6-(2,2,2-trifluoroethoxy)pyridin-3-yl)methyl)-6-methylpyrimidine-4-carboxamide], the IC50 at human Nav1.3 channels and at human Nav1.7 channels was less than 1000 nM each time.

Take `Cc1cc(CNC(=O)c2ccnc(NC(=O)C3CC3)n2)ccc1OC(F)(F)F` [Example 810, 2-(cyclopropanecarboxamido)-N-(3-methyl-4-(trifluoromethoxy)benzyl)pyrimidine-4-carboxamide]: the 50% inhibitory concentration (IC50) on human Nav1.3 channels and on human Nav1.7 channels was less than 1000 nM each time.

Regarding `CCC(=O)Nc1cc(C(=O)NCc2cnc(OCC(F)F)c(CC)c2)ccn1` [Example 930, N-((6-(2,2-difluoroethoxy)-5-ethylpyridin-3-yl)methyl)-2-propionamidoisonicotinamide], the IC50 on human Nav1.3 channels and on human Nav1.7 channels was less than 1000 nM in each case.

For the compound `COc1nc(OCC(F)(F)F)ccc1CNC(=O)c1cc(C)nc(NC(=O)C(C)C)c1` [Example 494, 2-isobutyramido-N-((2-methoxy-6-(2,2,2-trifluoroethoxy)pyridin-3-yl)methyl)-6-methylisonicotinamide], the IC50 on human Nav1.3 channels and at human Nav1.7 channels was less than 1000 nM each time.

As to `CCC(=O)Nc1cc(C(=O)NCc2cccc(C(F)(F)F)c2)cc(C)n1` [Example 127, 2-methyl-6-propionamido-N-(3-(trifluoromethyl)benzyl)isonicotinamide], the IC50 at human Nav1.3 channels and on human Nav1.7 channels was less than 1000 nM each time.

In the case of `Cc1cc(CNC(=O)c2ccnc(NC(=O)C3CC3)n2)cnc1OCC(F)(F)F` [Example 564, 2-(cyclopropanecarboxamido)-N-((5-methyl-6-(2,2,2-trifluoroethoxy)pyridin-3-yl)methyl)pyrimidine-4-carboxamide], the IC50 at human Nav1.3 channels and on human Nav1.7 channels was less than 1000 nM each time.

Turning to `COc1c(CNC(=O)c2cc(C)nc(NC(=O)C(C)C)c2)cccc1C(F)(F)F` [Example 880, 2-isobutyramido-N-(2-methoxy-3-(trifluoromethyl)benzyl)-6-methylisonicotinamide], the IC50 on human Nav1.3 channels and on human Nav1.7 channels was less than 1000 nM in each case.

With `CC(=O)Nc1cc(C(=O)NCc2ccc(OC(F)(F)F)c(C)c2)cc(C)n1` [Example 808, 2-acetamido-6-methyl-N-(3-methyl-4-(trifluoromethoxy)benzyl)isonicotinamide], the IC50 at human Nav1.3 channels and at human Nav1.7 channels was less than 1000 nM in each case.

Consider `CCC(=O)Nc1cc(C(=O)NC(C)c2cnc(OCC(F)(F)F)c(Cl)c2)ccn1` (single isomer, unassigned) [Example 69, N-(1-(5-chloro-6-(2,2,2-trifluoroethoxy)pyridin-3-yl)ethyl)-2-propionamidoisonicotinamide], for which the IC50 at human Nav1.3 channels and at human Nav1.7 channels was less than 1000 nM in each case.

Consider `Cc1cc(C(=O)NCc2cnc(OCC(F)(F)C(F)F)c(C)c2)nc(NC(=O)C2CC2)n1` [Example 947, 2-(cyclopropanecarboxamido)-6-methyl-N-((5-methyl-6-(2,2,3,3-tetrafluoropropoxy)pyridin-3-yl)methyl)pyrimidine-4-carboxamide], for which the IC50 on human Nav1.3 channels and on human Nav1.7 channels was less than 1000 nM in each case.

Take `CCC(=O)Nc1cc(C(=O)NC(C)c2cnc(OCC(F)F)c(C)c2)cc(C)n1` (single isomer, unassigned) [Example 554, N-(1-(6-(2,2-difluoroethoxy)-5-methylpyridin-3-yl)ethyl)-2-methyl-6-propionamidoisonicotinamide]: the IC50 on human Nav1.3 channels and on human Nav1.7 channels was less than 1000 nM throughout.

As for `CCC(=O)Nc1cc(C(=O)NCc2cccc(OCC(F)(F)F)n2)cc(C)n1` [Example 467, 2-methyl-6-propionamido-N-((6-(2,2,2-trifluoroethoxy)pyridin-2-yl)methyl)isonicotinamide], the IC50 at human Nav1.3 channels and on human Nav1.7 channels was less than 1000 nM each time.

`Cc1cc(CNC(=O)c2ccnc(NC(=O)C3CC3)c2)cnc1OCC(F)(F)C(F)F` [Example 942, 2-(cyclopropanecarboxamido)-N-((5-methyl-6-(2,2,3,3-tetrafluoropropoxy)pyridin-3-yl)methyl)isonicotinamide]: the IC50 at human Nav1.3 channels and at human Nav1.7 channels was less than 1000 nM each time.

Regarding `Cc1cc(CNC(=O)c2ccnc(NC(=O)C3CC3)c2)ccc1OCC(F)(F)F` [Example 790, 2-(cyclopropanecarboxamido)-N-(3-methyl-4-(2,2,2-trifluoroethoxy)benzyl)isonicotinamide], the IC50 on human Nav1.3 channels and at human Nav1.7 channels was less than 1000 nM each time.

Take `Cc1cc(C(=O)NC(C)c2cnc(OCC(F)F)c(C)c2)cc(NC(=O)C(C)C)n1` (single isomer, unassigned) [Example 557, N-(1-(6-(2,2-difluoroethoxy)-5-methylpyridin-3-yl)ethyl)-2-isobutyramido-6-methylisonicotinamide]: the IC50 at human Nav1.3 channels and on human Nav1.7 channels was less than 1000 nM in each case.

`CCc1cc(CNC(=O)c2cc(C)nc(NC(=O)C3CC3)c2)cnc1OCC(F)(F)F` [Example 825, 2-(cyclopropanecarboxamido)-N-((5-ethyl-6-(2,2,2-trifluoroethoxy)pyridin-3-yl)methyl)-6-methylisonicotinamide]: the half-maximal inhibitory concentration (IC50) at human Nav1.3 channels and on human Nav1.7 channels was less than 1000 nM each time.

As to `COc1cc(CNC(=O)c2cc(C)nc(NC(=O)C(C)C)c2)cnc1OCC(F)(F)F` [Example 492, 2-isobutyramido-N-((5-methoxy-6-(2,2,2-trifluoroethoxy)pyridin-3-yl)methyl)-6-methylisonicotinamide], the IC50 at human Nav1.3 channels and on human Nav1.7 channels was less than 1000 nM throughout.

With `CCOc1nc(OCC(F)(F)F)ccc1CNC(=O)c1cc(C)nc(NC(=O)C(C)C)n1` [Example 360, N-((2-ethoxy-6-(2,2,2-trifluoroethoxy)pyridin-3-yl)methyl)-2-isobutyramido-6-methylpyrimidine-4-carboxamide], the IC50 on human Nav1.3 channels and at human Nav1.7 channels was less than 1000 nM throughout.

As for `CCC(=O)Nc1cc(C(=O)NCc2cccc(OC(F)F)c2)cc(C)n1` [Example 129, N-(3-(difluoromethoxy)benzyl)-2-methyl-6-propionamidoisonicotinamide], the IC50 at human Nav1.3 channels and on human Nav1.7 channels was less than 1000 nM in each case.

Regarding `CCC(=O)Nc1nc(C)cc(C(=O)NC(C)c2cnc(OCC(F)(F)F)c(C)c2)n1` (single isomer, unassigned) [Example 227, 6-methyl-N-(1-(5-methyl-6-(2,2,2-trifluoroethoxy)pyridin-3-yl)ethyl)-2-propionamidopyrimidine-4-carboxamide], the IC50 on human Nav1.3 channels and on human Nav1.7 channels was less than 1000 nM in each case.

In the case of `Cc1cc(C(=O)NCc2cnc(OCC(F)(F)F)c(Br)c2)nc(NC(=O)C2CC2)n1` [Example 902, N-((5-bromo-6-(2,2,2-trifluoroethoxy)pyridin-3-yl)methyl)-2-(cyclopropanecarboxamido)-6-methylpyrimidine-4-carboxamide], the IC50 at human Nav1.3 channels and on human Nav1.7 channels was less than 1000 nM each time.

As to `CC(=O)Nc1cc(C(=O)NCc2cccc(OC(F)(F)F)c2F)cc(C)n1` [Example 751, 2-acetamido-N-(2-fluoro-3-(trifluoromethoxy)benzyl)-6-methylisonicotinamide], the IC50 on human Nav1.3 channels and at human Nav1.7 channels was less than 1000 nM each time.

Take `CCC(=O)Nc1cc(C(=O)NC(C)c2cnc(OCC(F)(F)F)c(C)c2)ccn1` (single isomer, unassigned) [Example 87, N-(1-(5-methyl-6-(2,2,2-trifluoroethoxy)pyridin-3-yl)ethyl)-2-propionamidoisonicotinamide]: the IC50 at human Nav1.3 channels and on human Nav1.7 channels was less than 1000 nM each time.
